Values belong to the molecule of their own block, whether it stands above or below them.
How the values were obtained:
TNF-α [1] = assay: LPS-induced TNF-α release in BALB/c mice; type: in vivo; conditions: Mus musculus, LPS 1 mg/kg i.p. 1 h after dosing, plasma TNF-α 1.5 h after LPS, read-out: % inhibition (Mean ± SE*); for inhibition in vivo at 100 mg/kg: 100 mg/kg po; for inhibition in vivo at 30 mg/kg: 30 mg/kg po
Procedure: The protocol described by Fukuda T. et al (Eur. J. Pharmacol., 391: 317-320, 2000) was followed. BALB/c mice were divided into groups of five to ten each. The test compound, suspended in Tween 80-0.5% carboxy methylcellulose (CMC), with a few drops of Tween 80 as wetting agent if necessary, was administered orally (p.o.) to the mice. One hour later, LPS dissolved in sterile, pyrogen-free saline was administered i.p. at the dose of 1 mg/kg. The negative control group received saline as an i.p injection, while all other groups received LPS. Rolipram (30 mg/kg) was used as the standard drug. One and a half hours later, blood was collected in heparin. Plasma was separated by centrifugation at 13000 rpm (Heraeus Biofuge Pico Centrifuge) at room temperature, aliquoted and stored at −70° C. until analysis.
TNF-α levels in the blood samples were assayed using ELISA and % inhibition of TNF-α release compared to the control group was calculated.

[2] = test system: peripheral blood mononuclear cells (PBMC); assay: Cytotoxicity of test compounds in PBMC, cell viability by MTS reagent; type: cell-based, human
Procedure: (§1) TNF-α production by LPS in peripheral blood mononuclear cells (PBMC) was measured according to the method described by Henry et al (J. Bioorg. Med. Chem. Lett., 8: 3335-3340, 1998). Briefly, blood was collected from healthy donors into Potassium EDTA vacutainer tubes (Vacutest Plast/Becton Dickinson). PBMC were isolated using gradient centrifugation in Ficoll-Paque solution (Pharmacia). Isolated PBMC were suspended in RPMI 1640 culture medium (Gibco BRL, Pasley, UK) containing 10% fetal bovine serum (FBS) (Hyclone, Utah, USA), 100 U/ml penicillin (Sigma Chemical Co. St Louis, Mo.) and 100 μg/ml streptomycin (Sigma Chemical Co. St Louis, Mo.). The cell concentration was adjusted to 1×10^6 cells/ml. The viability as determined by trypan blue dye exclusion was uniformly ≧98%. The cell suspension (100 μl) was added to the wells of a 96-well culture plate. Following cell plating, 79 μl of the culture medium and 1 μl of eight different concentrations of the test compounds (final concentration 0.03, 0.1, 0.3, 1, 3, 10, 30, 100 μM) dissolved in DMSO (dimethylsulfoxide, Sigma, Mo., USA) were added to the cells. The final concentration of DMSO was adjusted to 0.5%. The appropriate DMSO concentration was used as control. Rolipram (30 μM) was used as a standard compound. The plates were incubated for 30 min at 37° C. in an atmosphere of 5% CO2. Finally, 20 μl (10 μg/ml) per well of LPS, (Escherchia coli 0127:B8, Sigma Chemical Co., St. Louis, Mo.) was added, for a final concentration of 1 μg/ml. The plates were incubated at 37° C. for 4.5 h in an atmosphere of 5% CO2. To determine the cytotoxicity of the test compounds, the cell viability was assessed using MTS (3-(4,5-dimethylthiazol-2-yl)-5-(3-carboxymethoxyphenyl)-2-(4-sulfonyl)-2H-tetrazolium) reagent (Promega) after 4.5 h of incubation. Supernatants were harvested and assayed for TNF-α by ELISA as described by the manufacturer (R&D Systems, MN, BD Biosciences Pharmingen) or by cytotoxicity bioassay in L929 cells. The 50% inhibitory concentration (IC50) values were calculated by a nonlinear regression method using GraphPad software (Prism 3.03)

TNF-α [3] = assay: LPS-induced TNF-α production in peripheral blood mononuclear cells (secondary screening); type: cell-based; conditions: 4.5 h, TNF-α production in PBMC, LPS 1 μg/ml, ELISA or L929 bioassay
Procedure: as §1

TNF-α [4] = assay: Whole blood cell culture assay: LPS-induced TNF-α release (primary screening); type: cell-based, human; conditions: Homo sapiens, Whole blood cell; test compound 1 μM; diluted whole blood of healthy donors; LPS 1 μg/ml, 4.5 h; vs DMSO control
Procedure: TNF-α production by lipopolysaccharide (LPS) in whole blood was measured according to the method described by Wilson et al (J. Immunol. Methods, 139: 233-240, 1991). Briefly, blood was collected from healthy donors into potassium EDTA vacutainer tubes (Vacutest Plast/Becton Dickinson) and diluted with RPMI 1640 culture medium (Gibco BRL, Pasley, UK) containing 100 U/ml penicillin and 100 μg/ml streptomycin, (100× solution, Sigma Chemical Co. St Louis, Mo.) with no added serum. The white blood cell count was adjusted to 1×10^6 cells/ml and 100 μl/well of the diluted blood was transferred into 96-well culture plates. Following cell plating, 79 μl of culture medium and 1 μl of the test compounds (final concentration 1 μM) dissolved in DMSO (dimethylsulfoxide, Sigma, Mo., USA) was added to the cells. The final concentration of DMSO was adjusted to 0.5%. 1 μl of vehicle (0.5% DMSO) was used as control. Rolipram (100 μM) was used as a standard compound. The plates were incubated for 30 min at 37° C. in an atmosphere of 5% CO2. Finally, 20 μl (10 μg/ml) per well of LPS (Escherchia coli 0127:B8, Sigma Chemical Co., St. Louis, Mo.) was added, for a final concentration of 1 μg/ml. Plates were incubated at 37° C. for 4.5 h in an atmosphere of 5% CO2. Supernatants were harvested and assayed for TNF-α by ELISA as described by the manufacturer (R&D Systems, MN) or by cytotoxicity bioassay in L929 cells. Percent inhibition of TNF-α release in comparison to the control was calculated.

Compound: COC(=O)c1cc(C)c2c(c1)S(=O)(=O)Cc1cc(N3CCN(C(C)=O)CC3)cc(Cl)c1O2 [Example 21, 2-(4-Acetyl-piperazin-1-yl)-4-chloro-6-methyl-10,10-dioxo-10,11-dihydro-5-oxa-10lambda*6*-thia-dibenzo[a,d]cycloheptene-8-carboxylic acid methyl ester]
inhibition in vivo at 30 mg/kg (TNF-α [1]): 54.6 ± 11.7%
% toxicity (10 μM), 5 h [2]: 44%
IC50 (TNF-α [3]): 4 µM

Compound: COC(=O)c1cc(C)c2c(c1)S(=O)(=O)Cc1cc(N3CCN(CCO)CC3)cc(Cl)c1O2 [Example 22, 4-Chloro-2-[4-(2-hydroxy-ethyl)-piperazin-1-yl]-6-methyl-10,10-dioxo-10,11-dihydro-5-oxa-10lambda*6*-thia-dibenzo[a,d]cycloheptene-8-carboxylic acid methyl ester]
inhibition in vivo at 100 mg/kg (TNF-α [1]): 57.7 ± 5.66%
% toxicity (10 μM), 5 h [2]: 16%
IC50 (TNF-α [3]): 0.88 µM

Compound: COC(=O)c1cc(C)c2c(c1)S(=O)(=O)Cc1cc(N3CCN(C(=O)c4ccccc4C)CC3)cc(Cl)c1O2 [Example 24, 4-Chloro-6-methyl-2-[4-(2-methyl-benzoyl)-piperazin-1-yl]-10,10-dioxo-10,11-dihydro-5-oxa-10lambda*6*-thia-dibenzo[a,d]cycloheptene-8-carboxylic acid methyl ester]
inhibition in vivo at 30 mg/kg (TNF-α [1]): 17.6 ± 8.72%
% toxicity (10 μM), 5 h [2]: 03%
IC50 (TNF-α [3]): 3.87 ± 1.42 µM
inhibition at 1 µM (TNF-α [4]): 74%
melting point: 201 to 204 °C

Compound: COC(=O)c1cc(C)c2c(c1)S(=O)(=O)Cc1cc(N3CCN(S(C)(=O)=O)CC3)cc(Cl)c1O2 [Example 25, 4-Chloro-2-(4-methanesulfonyl-piperazin-1-yl)-6-methyl-10,10-dioxo-10,11-dihydro-5-oxa-10lambda*6*-thia-dibenzo[a,d]cycloheptene-8-carboxylic acid methyl ester]
inhibition in vivo at 30 mg/kg (TNF-α [1]): 33.6 ± 16.5%
% toxicity (10 μM), 5 h [2]: 18%
IC50 (TNF-α [3]): 0.6 µM

Compound: COC(=O)c1cc(C)c2c(c1)S(=O)(=O)Cc1cc(N3CCN(C(=O)OCc4ccccc4)CC3)cc(Cl)c1O2 [Example 26, 4-(4-Chloro-8-methoxycarbonyl-6-methyl-10,10-dioxo-10,11-dihydro-5-oxa-10lambda*6*-thia-dibenzo[a,d]cyclohepten-2-yl)-piperazine-1-carboxylic acid benzyl ester]
inhibition in vivo at 100 mg/kg (TNF-α [1]): 68.7 ± 3.68%
% toxicity (10 μM), 5 h [2]: 00%
IC50 (TNF-α [3]): 8.05 ± 1.57 µM
inhibition at 1 µM (TNF-α [4]): 85%
melting point: 170 to 173 °C

The next lines start with results.

IC50 (TNF-α [3]): 8.6 µM
melting point: 258 to 260 °C
Compound: COC(=O)c1cc(C)c2c(c1)S(=O)(=O)Cc1cc(N)cc(Cl)c1O2 [Example 1, 2-Amino-4-chloro-6-methyl-10,10-dioxo-10,11-dihydro-5-oxa-10lambda*6*-thia-dibenzo[a,d]cycloheptene-8-carboxylic acid methyl ester]
inhibition in vivo at 10 mg/kg (TNF-α [1]; 10 mg/kg po): 64.9 ± 3.97%
% toxicity (10 μM), 5 h [2]: 12%

IC50 (TNF-α [3]): 21 µM
melting point: 212 to 215 °C
Compound: Cc1cc(C(=O)OC(C)C)cc2c1Oc1c(Cl)cc(NC=O)cc1CS2(=O)=O [Example 11, 4-Chloro-2-formylamino-6-methyl-10,10-dioxo-10,11-dihydro-5-oxa-10lambda*6*-thia-dibenzo[a,d]cycloheptene-8-carboxylic acid isopropyl ester]
inhibition in vivo at 100 mg/kg (TNF-α [1]): 77.9 ± 9.85%
% toxicity (10 μM), 5 h [2]: 25%
inhibition at 1 µM (TNF-α [4]): 51%

IC50 (TNF-α [3]): 0.18 µM
melting point: 277 to 280 °C
Compound: COC(=O)c1cc(C)c2c(c1)S(=O)(=O)Cc1cc(N3CCNCC3)cc(Cl)c1O2.Cl [Example 16, 4-Chloro-6-methyl-10,10-dioxo-2-piperazin-1-yl-10,11-dihydro-5-oxa-10lambda*6*-thia-dibenzo[a,d]-cycloheptene-8-carboxylic acid methyl ester hydrochloride]
inhibition in vivo at 100 mg/kg (TNF-α [1]): 72.2 ± 3.17%
% toxicity (10 μM), 5 h [2]: 62%
inhibition at 1 µM (TNF-α [4]): 41%

IC50 (TNF-α [3]): 0.51 µM
melting point: 270 °C (dec.)
Compound: COC(=O)c1cc(C)c2c(c1)S(=O)(=O)Cc1cc(N3CCCNCC3)cc(Cl)c1O2.Cl [Example 29, 4-Chloro-2-[1,4]diazepan-1yl-6-methyl-10,10-dioxo-10,11-dihydro-5-oxa-10lambda*6*-thia-dibenzo[a,d]cycloheptene-8-carboxylic acid methyl ester hydrochloride]
inhibition in vivo at 100 mg/kg (TNF-α [1]): 79.1 ± 0.91%
% toxicity (10 μM), 5 h [2]: 23%
inhibition at 1 µM (TNF-α [4]): 76%

Reference: patent US7964631B2, “Fused tricyclic compounds as inhibitors of tumor necrosis factor-α” (Piramal Life Sciences Limited, priority 2004, dated 2011)
